Assay results as given in ChEMBL document CHEMBL1131959, “Synthesis of glucuronides of multidrug resistance reversing drug MS-209” (Bioorg Med Chem Lett, 1999).
The source made the active and inactive calls. The calls are words filed in the database; no cut-off is given here.

Assays:
[1] = tested on: Tumor Cell line; assay: Multidrug resistant(MDR) reversing activity in vitro in human tumor cells; Inactive; format: functional, cell-based
[2] = tested on: Tumor Cell line; assay: Multidrug resistant(MDR) reversing activity in vitro in human tumor cells; Active; format: functional, cell-based

Compound	Reversing activity [1]	Reversing activity [2]
O=C(O)[C@H]1O[C@@H](O[C@H](COc2cccc3ncccc23)CN2CCN(C(=O)C(c3ccccc3)c3ccccc3)CC2)[C@H](O)[C@@H](O)[C@@H]1O	inactive	–
O=C(C(c1ccccc1)c1ccccc1)N1CCN(C[C@@H](O)COc2cccc3ncccc23)CC1	–	Active
O=C(O)[C@H]1O[C@@H](O[C@@H](COc2cccc3ncccc23)CN2CCN(C(=O)C(c3ccccc3)c3ccccc3)CC2)[C@H](O)[C@@H](O)[C@@H]1O	inactive	–
